For one test, the target named is T1, Caspase 2 (Homo sapiens, UniProt P42575).
T1 construct: Beyotime (assay kit only) C1107
The test is described as follows: Caspase activity assay kit, CASP2. It counts as biochemical. Conditions: 10 μM. How it is done:
The enzyme activity of Caspase 1, Caspase 2, Caspase 3, Caspase 4, Caspase 6, Caspase 8 and Caspase 9 were determined via the activity assay kits (C1101, C1107, C1115, C1121, C1135, C1151 and C1157) from Beyotime (Shanghai, China). Then the experimental procedures were performed according to the manufacturer’s protocols.

The target in test [1] is T2, Recombinant protein ATG4A (Homo sapiens, UniProt Q8WYN0).
T2 construct: 6xHis; made in house; host or cells: E. coli BL21(DE3)
T2 sequence (Q8WYN0 whole entry): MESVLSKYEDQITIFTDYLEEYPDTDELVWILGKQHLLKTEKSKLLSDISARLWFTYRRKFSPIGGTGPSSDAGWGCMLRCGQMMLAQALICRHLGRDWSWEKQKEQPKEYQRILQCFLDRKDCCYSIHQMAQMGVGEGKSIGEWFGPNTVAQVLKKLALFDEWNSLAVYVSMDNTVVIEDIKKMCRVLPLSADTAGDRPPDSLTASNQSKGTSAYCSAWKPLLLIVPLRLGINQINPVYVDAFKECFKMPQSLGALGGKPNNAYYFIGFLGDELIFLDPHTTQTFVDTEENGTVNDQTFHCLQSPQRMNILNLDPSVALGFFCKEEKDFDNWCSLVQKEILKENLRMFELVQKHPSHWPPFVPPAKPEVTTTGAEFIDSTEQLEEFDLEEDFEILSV
The test is described as follows: FRET-based assay for ATG4A activity. The test is classed as biochemical. Conditions: FRET-based enzymatic cleavage. How it is done:
FRET-based assay for ATG4B or ATG4A activity was operated as previously described. Briefly, Recombinant protein ATG4B (0.75 μg/ml) or ATG4A (5 μg/ml) was incubated with compounds in reaction buffer (150 mM NaCl, 20 mM Tris–HCl, pH 8.0, 0.1% CHAPS, 1 mM EDTA) at 37 °C. After 30 min, substrate FRET-GATE-16 (50 μg/ml) was added to a final volume of 50 μl. The reaction was recorded via relative fluorescence intensity ratio of 527 nm/477 nm (RFU). The final inhibition rate of the compound for ATG4 was calculated as: (RFUcompound-RFUNC)/(RFUCON-RFUNC) × 100%; respectively, NC as negative control without inhibitor, CON as control without enzymes. For ATG4 activity determination in cells and tissues, cells or separated tumor samples were homogenized in a native lysis buffer (150 mM NaCl, 20 mM Tris–HCl, pH 7.6, 1% TritonX-100, 1 mM EDTA) without protease inhibitors. Then 5 μg total proteins from each sample was added into FRET assay system after clean supernatant proteins were separated. The reaction was recorded via relative fluorescence intensity ratio of 527 nm/477 nm. Finally, the inhibition rates of ATG4B were calculated with the vehicle or CM group as the negative control (ATG4 activity defined as 100%).

For test [2], the target named is T3, ATG4B (Homo sapiens, UniProt Q9Y4P1).
T3 construct: 6xHis; made in house; host or cells: E. coli BL21(DE3)
T3 sequence (Q9Y4P1 1-393): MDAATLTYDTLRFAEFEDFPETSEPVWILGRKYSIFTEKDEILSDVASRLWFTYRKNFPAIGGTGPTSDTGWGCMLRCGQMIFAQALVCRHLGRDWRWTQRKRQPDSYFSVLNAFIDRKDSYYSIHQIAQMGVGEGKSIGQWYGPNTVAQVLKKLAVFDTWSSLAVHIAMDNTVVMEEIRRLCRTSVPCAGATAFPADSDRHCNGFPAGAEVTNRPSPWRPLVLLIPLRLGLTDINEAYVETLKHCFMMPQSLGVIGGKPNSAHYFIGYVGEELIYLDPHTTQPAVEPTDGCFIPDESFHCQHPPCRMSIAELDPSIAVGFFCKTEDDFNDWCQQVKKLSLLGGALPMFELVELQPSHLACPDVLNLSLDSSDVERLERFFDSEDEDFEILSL
The test is described as follows: Gel-based assay (SDS-PAGE and CBB staining of FRET-GATE-16 cleavage). The test is classed as biochemical. Conditions: 1 μM. How it is done: Taking ATG4B as the target, we used the high-throughput FRET-based assay to screen the FDA-approved drugs library containing 1600 compounds (Fig. 1A). […] (Additional file 1: Figure S1C). Then twenty-four candidate compounds (marked in red) were noted through an initial screening at 10 μM (Fig. 1B). To further validate their inhibitory effect, a more rigorous and authentic approach as gel-based assay was carried out (Fig. 1C). The brake of the cleavage reaction of the substrate FRET-GATE-16 was very intuitively reflective of the compounds’ inhibitory effect on the ATG4B enzymatic activity. […] This was also verified in the FRET- and gel-based full concentration-response plot of compound 669 (Fig. 1D, E).
Fig. 1 Screening of ATG4B inhibitors based on the approved drugs library by FRET assay. A Illustration of the FRET-based high-throughput screening platform for ATG4B inhibitors. B Scatter plot of inhibition rate of approved library for ATG4B based on FRET assay. Candidate compounds were marked in red. […] C The inhibitory effect of twenty-four candidate compounds (10 μM) were detected by SDS-PAGE and Coomassie brilliant blue (CBB) staining according to the cleavage of substrates. […] D The dose-dependent inhibition of compound 669 (Ebselen) were determined by SDS-PAGE.

The subject of a further test is SW620. As to the kind of experiment: Autophagy flux by LC3B-II western blot in SW620. Conditions: Ebselen 10 μM with CQ 40 μM. The test is classed as cell-based. How it is done:
Fig. 5 Ebselen suppresses autophagy flux via inhibition of ATG4B. A, B HeLa cells were treated with Torin 1 (2 μM) or CQ (40 μM) and detected by western blot. C, D SW620 cells were transduced with sgCon and sgATG4B lentiviruses, respectively. Then cells were treated with CQ (40 μM) and detected by western blot. E, F HCT116 were treated with Ebselen (5 and 10 μM) or CQ (40 μM) and subjected to western blot. G, H SW620 were treated with Ebselen (10 μM) or CQ (40 μM) and western blotting was carried out to detect the protein levels. I, J Immunofluorescence analysis of endogenous LC3B in HCT116 treated with Ebselen (10 μM) or CQ (40 μM). Dots numbers for LC3B were derived from counting at least 20 cells and 5 fields from three independent replicated experiments. Bar = 10 μm. K HCT116 cells were treated with 2 μM Torin 1 in the presence or absence of 10 μM Ebselen for 12 h, then the level ratio of long-lived proteins was measured by flow cytometry
Immunoblotting assay was performed reportedly previously. Commonly, cells were lysed in ice-cold RIPA lysis buffer (Beyotime, P0013B) supplemented with Pierce™ protease inhibitor tablet (ThermoFisher Scientific, A32965). […]

Test [3] concerns the target T3, ATG4B. As to the kind of experiment: FRET-based assay for ATG4B activity. It counts as biochemical.
Description: FRET-based assay for ATG4B or ATG4A activity was operated as previously described [5, 17]. Briefly, Recombinant protein ATG4B (0.75 μg/ml) or ATG4A (5 μg/ml) was incubated with compounds in reaction buffer (150 mM NaCl, 20 mM Tris–HCl, pH 8.0, 0.1% CHAPS, 1 mM EDTA) at 37 °C. After 30 min, substrate FRET-GATE-16 (50 μg/ml) was added to a final volume of 50 μl. The reaction was recorded via relative fluorescence intensity ratio of 527 nm/477 nm (RFU). The final inhibition rate of the compound for ATG4 was calculated as: (RFUcompound-RFUNC)/(RFUCON-RFUNC) × 100%; respectively, NC as negative control without inhibitor, CON as control without enzymes.
Test [4] concerns the target T3, ATG4B. As to the kind of experiment: Denaturing mass spectrometry of covalent binding. To be noted: ATG4B 20 μM, compound 60 μM, 1 h at 37 °C; shift of 275 Da on 57,200 Da form. How it is done:
Analysis of covalent binding between protein and ligand was performed by denaturing mass spectrometry. ATG4B WT and related mutant (20 μM) were incubated with or without compound (60 μM) in phosphate buffer for 1 h at 37℃. Then the samples were desalted using ultrafiltration spin columns (0.5 ml, 10 kDa MWCO, PES, Sartorius) and buffer-exchanged into Milli-Q water. Subsequently, samples were diluted containing 0.1% v/v formic acid before being subjected to denaturing electrospray ionization mass spectrometry analysis (TOF, Waters, SYNAPT G2-Si). Spectrum data were processed with MassLynx (Waters).

The structures appear in SMILES notation. pIC50: −log10 of the molar value.

T1 sequence (P42575 170-325 limits assumed, species assumed): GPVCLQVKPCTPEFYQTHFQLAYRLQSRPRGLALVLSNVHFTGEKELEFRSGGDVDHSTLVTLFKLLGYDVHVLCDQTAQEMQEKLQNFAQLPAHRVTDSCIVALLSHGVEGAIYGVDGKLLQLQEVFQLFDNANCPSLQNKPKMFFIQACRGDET
T1 sequence (P42575 348-452 limits assumed, species assumed): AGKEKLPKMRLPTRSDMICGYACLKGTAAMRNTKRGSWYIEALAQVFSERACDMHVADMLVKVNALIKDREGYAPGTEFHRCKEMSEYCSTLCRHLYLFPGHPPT

As for `O=c1c2ccccc2[se]n1-c1ccccc1` [Ebselen], on Caspase 2, the “effect on CASP2 activity” value is “certain inhibition”. Further, the “inhibition of ATG4A compared to ATG4B” value in test [1] is “weaker inhibition”. In addition, on ATG4B [2], the “inhibition of ATG4B in gel” value is recorded as “complete inhibition”. Moreover, the “autophagic flux (LC3B-II)” value in the test with SW620 is recorded as “inhibition of autophagic flux”. In addition, at ATG4B [3] (Ebselen 0.5 μM, 15-90 min, compared to 2CS), the “inhibition rate against ATG4B WT” value is listed as “higher inhibition rate”. For the same molecule, the pIC50 on ATG4B [3] (recombinant ATG4B 0.75 μg/ml, 30 min preincubation at 37 °C) is 6.72. Moreover, the “covalent binding to ATG4B” value at ATG4B [4] was “covalently binds to ATG4B”.

Source of the values: PMC9767854, “Discovery and mechanism studies of a novel ATG4B inhibitor Ebselen by drug repurposing and its anti-colorectal cancer effects in mice” (Cell & Bioscience, 2022).
